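Exposure lasted 48 hours, with cells grown in 96-well plates and compounds tested at five concentrations. Here, GI50 denotes the concentration required for 50% inhibition of growth.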 Calls of active or inactive are those of the source. No stated cut-off is given here; in the data, active = GI50 up to about 1.1 µM and inactive = higher.
Assays:
Assay in all cases: DTP human tumour cell line panel, 48 h
MDA-MB-435 = test system: MDA-MB-435
A498 = test system: A498
LOX IMVI = test system: LOX IMVI
NCI-H522 = test system: NCI-H522
HOP-62 = test system: HOP-62
OVCAR-3 = test system: OVCAR-3
NCI-H460 = test system: NCI-H460
NCI/ADR-RES = test system: NCI/ADR-RES
PC-3 = test system: PC-3
Malme-3M = test system: Malme-3M
MDA-N = test system: MDA-N
Hs-578T = test system: Hs-578T
SNB-75 = test system: SNB-75
HCT-15 = test system: HCT-15
MCF7 = test system: MCF7
NCI-H23 = test system: NCI-H23
MDA-MB-231 = test system: MDA-MB-231
CAKI-1 = test system: CAKI-1
ACHN = test system: ACHN
T47D = test system: T47D
BT-549 = test system: BT-549
SK-MEL-28 = test system: SK-MEL-28
IGROV-1 = test system: IGROV-1
NCI-H226 = test system: NCI-H226
SF-539 = test system: SF-539
HCT-116 = test system: HCT-116
DU-145 = test system: DU-145
SR = test system: SR
TK-10 = test system: TK-10
SN12C = test system: SN12C
SW-620 = test system: SW-620
SK-OV-3 = test system: SK-OV-3
UACC-257 = test system: UACC-257
RPMI-8226 = test system: RPMI-8226
MOLT-4 = test system: MOLT-4
UACC-62 = test system: UACC-62
786-0 = test system: 786-0
CCRF-CEM = test system: CCRF-CEM
COLO 205 = test system: COLO 205
KM12 = test system: KM12
K562 = test system: K562
HCC 2998 = test system: HCC 2998
OVCAR-5 = test system: OVCAR-5
UO-31 = test system: UO-31
OVCAR-4 = test system: OVCAR-4
U-251 = test system: U-251
OVCAR-8 = test system: OVCAR-8
HOP-92 = test system: HOP-92
HL-60 = test system: HL-60
SF-268 = test system: SF-268
SNB-19 = test system: SNB-19
M14 = test system: M14
HT-29 = test system: HT-29
SK-MEL-2 = test system: SK-MEL-2
SF-295 = test system: SF-295
SK-MEL-5 = test system: SK-MEL-5
A549 = test system: A549
EKVX = test system: EKVX
RXF 393 = test system: RXF 393

Structure (SMILES): NCCCNCCS
- GI50 (MDA-MB-435): 65.5 µM (inactive)
- GI50 (A498): > 100 µM (inactive)
- GI50 (LOX IMVI): > 100 µM (inactive)
- GI50 (NCI-H522): 91.8 µM (inactive)
- GI50 (HOP-62): > 100 µM (inactive)
- GI50 (OVCAR-3): > 100 µM (inactive)
- GI50 (NCI-H460): > 100 µM (inactive)
- GI50 (NCI/ADR-RES): > 100 µM (inactive)
- GI50 (PC-3): > 100 µM (inactive)
- GI50 (Malme-3M): > 100 µM (inactive)
- GI50 (MDA-N): > 100 µM (inactive)
- GI50 (Hs-578T): > 100 µM (inactive)
- GI50 (SNB-75): > 100 µM (inactive)
- GI50 (HCT-15): 74.3 µM
- GI50 (MCF7): > 100 µM (inactive)
- GI50 (NCI-H23): > 100 µM (inactive)
- GI50 (MDA-MB-231): > 100 µM (inactive)
- GI50 (CAKI-1): 51.8 µM (inactive)
- GI50 (ACHN): > 100 µM (inactive)
- GI50 (T47D): > 100 µM (inactive)
- GI50 (BT-549): > 100 µM (inactive)
- GI50 (SK-MEL-28): > 100 µM (inactive)
- GI50 (IGROV-1): > 100 µM (inactive)
- GI50 (NCI-H226): > 100 µM (inactive)
- GI50 (SF-539): > 100 µM (inactive)
- GI50 (HCT-116): > 100 µM (inactive)
- GI50 (DU-145): > 100 µM (inactive)

Structure (SMILES): O=C(c1c(F)c(F)c(F)c(F)c1F)n1c(=S)n(C(=O)c2c(F)c(F)c(F)c(F)c2F)c2ccccc21
- GI50 (MDA-MB-435): > 10 µM (inactive)
- GI50 (SR): 39.9 µM (inactive)
- GI50 (LOX IMVI): 35.7 µM (inactive)
- GI50 (HOP-62): > 100 µM (inactive)
- GI50 (TK-10): > 100 µM (inactive)
- GI50 (SN12C): > 100 µM (inactive)
- GI50 (NCI-H460): > 100 µM (inactive)
- GI50 (SW-620): 46.5 µM (inactive)
- GI50 (PC-3): 64 µM (inactive)
- GI50 (SK-OV-3): > 100 µM (inactive)
- GI50 (UACC-257): > 100 µM (inactive)
- GI50 (RPMI-8226): 44.4 µM (inactive)
- GI50 (MOLT-4): 20 µM (inactive)
- GI50 (UACC-62): 24.7 µM (inactive)
- GI50 (MDA-N): > 100 µM (inactive)
- GI50 (786-0): > 100 µM (inactive)
- GI50 (CCRF-CEM): 12.3 µM (inactive)
- GI50 (Hs-578T): > 100 µM (inactive)
- GI50 (COLO 205): 49.9 µM (inactive)
- GI50 (SNB-75): > 100 µM (inactive)
- GI50 (KM12): > 100 µM (inactive)
- GI50 (HCT-15): > 100 µM
- GI50 (MCF7): 69.8 µM (inactive)
- GI50 (MDA-MB-231): > 100 µM (inactive)
- GI50 (ACHN): > 100 µM (inactive)
- GI50 (K562): 22.2 µM (inactive)
- GI50 (HCC 2998): > 100 µM (inactive)
- GI50 (T47D): 82.4 µM (inactive)
- GI50 (BT-549): > 100 µM (inactive)
- GI50 (SK-MEL-28): 59.2 µM (inactive)
- GI50 (IGROV-1): > 100 µM (inactive)
- GI50 (OVCAR-5): > 100 µM (inactive)
- GI50 (SF-539): > 100 µM (inactive)
- GI50 (UO-31): > 100 µM (inactive)
- GI50 (OVCAR-4): 95.5 µM (inactive)
- GI50 (HCT-116): > 100 µM (inactive)
- GI50 (U-251): > 100 µM (inactive)
- GI50 (OVCAR-8): > 100 µM (inactive)
- GI50 (DU-145): 80.5 µM (inactive)
- GI50 (HOP-92): > 100 µM (inactive)
- GI50 (HL-60): 12.9 µM (inactive)
- GI50 (SF-268): 39.9 µM (inactive)
- GI50 (SNB-19): > 100 µM (inactive)
- GI50 (M14): > 100 µM (inactive)
- GI50 (HT-29): > 100 µM (inactive)
- GI50 (SK-MEL-2): > 100 µM (inactive)
- GI50 (SF-295): > 100 µM (inactive)
- GI50 (SK-MEL-5): > 100 µM (inactive)

Structure (SMILES): CCOC(=N)n1c(=O)n(C2=NCCN2)c2ccccc21
- GI50 (MDA-MB-435): > 100 µM (inactive)
- GI50 (SR): > 100 µM (inactive)
- GI50 (A498): > 100 µM (inactive)
- GI50 (LOX IMVI): > 100 µM (inactive)
- GI50 (NCI-H522): > 100 µM (inactive)
- GI50 (HOP-62): > 100 µM (inactive)
- GI50 (TK-10): > 100 µM (inactive)
- GI50 (SN12C): > 100 µM (inactive)
- GI50 (OVCAR-3): > 100 µM (inactive)
- GI50 (NCI-H460): > 100 µM (inactive)
- GI50 (NCI/ADR-RES): > 100 µM (inactive)
- GI50 (SW-620): > 100 µM (inactive)
- GI50 (PC-3): > 100 µM (inactive)
- GI50 (Malme-3M): > 100 µM (inactive)
- GI50 (SK-OV-3): > 100 µM (inactive)
- GI50 (UACC-257): > 100 µM (inactive)
- GI50 (MOLT-4): > 100 µM (inactive)
- GI50 (UACC-62): > 100 µM (inactive)
- GI50 (MDA-N): > 100 µM (inactive)
- GI50 (A549): > 100 µM (inactive)
- GI50 (786-0): > 100 µM (inactive)
- GI50 (CCRF-CEM): > 100 µM (inactive)
- GI50 (COLO 205): > 100 µM (inactive)
- GI50 (SNB-75): 31.2 µM (inactive)
- GI50 (KM12): > 100 µM (inactive)
- GI50 (HCT-15): > 100 µM
- GI50 (MCF7): > 100 µM (inactive)
- GI50 (NCI-H23): > 100 µM (inactive)
- GI50 (MDA-MB-231): > 100 µM (inactive)
- GI50 (CAKI-1): > 100 µM (inactive)
- GI50 (ACHN): > 100 µM (inactive)
- GI50 (K562): > 100 µM (inactive)
- GI50 (HCC 2998): > 100 µM (inactive)
- GI50 (T47D): > 100 µM (inactive)
- GI50 (EKVX): > 100 µM (inactive)
- GI50 (RXF 393): > 100 µM (inactive)
- GI50 (BT-549): > 100 µM (inactive)
- GI50 (SK-MEL-28): > 100 µM (inactive)
- GI50 (IGROV-1): > 100 µM (inactive)
- GI50 (NCI-H226): > 100 µM (inactive)
- GI50 (OVCAR-5): > 100 µM (inactive)
- GI50 (SF-539): > 100 µM (inactive)
- GI50 (UO-31): > 100 µM (inactive)
- GI50 (OVCAR-4): > 100 µM (inactive)
- GI50 (HCT-116): > 100 µM (inactive)
- GI50 (U-251): > 100 µM (inactive)
- GI50 (OVCAR-8): > 100 µM (inactive)
- GI50 (DU-145): > 100 µM (inactive)
- GI50 (HOP-92): > 100 µM (inactive)
- GI50 (HL-60): > 100 µM (inactive)
- GI50 (SF-268): > 100 µM (inactive)
- GI50 (SNB-19): > 100 µM (inactive)
- GI50 (M14): > 100 µM (inactive)
- GI50 (HT-29): > 100 µM (inactive)
- GI50 (SF-295): > 100 µM (inactive)
